Laboratory results published in ChEMBL document CHEMBL1158308, “Three new adjacent bis-tetrahydrofuran acetogenins with four hydroxyl groups from Asimina triloba” (J Nat Prod, 1996).
Values after ≈ are worked out from the molar mass of the structure shown.

What was measured:
[1] = test system: PC-3; assay: Cytotoxicity against human PC3 cells after 7 days by MTT assay; type: functional; settings: PC-3, 168 h, read-out: ED50 (the source's name)
[2] = test system: MIA PaCa-2; assay: Cytotoxicity against human MIAPaCa2 cells after 7 days by MTT assay; type: functional; settings: MIA PaCa-2, 168 h, read-out: ED50 (the source's name)
[3] = test system: A498; assay: Cytotoxicity against human A498 cells after 7 days by MTT assay; type: functional; settings: A498, 168 h, read-out: ED50 (the source's name)
[4] = test system: Artemia salina; assay: Toxicity to Artemia salina; type: organism-based; settings: in vivo
[5] = test system: HT-29; assay: Cytotoxicity against human HT29 cells after 7 days by MTT assay; type: functional; settings: for EC50: Homo sapiens, HT-29, 168 h, read-out: ED50 (the source's name)
[6] = test system: MCF7; assay: Cytotoxicity against human MCF7 cells after 7 days by MTT assay; type: functional; settings: for EC50: Homo sapiens, MCF7, 168 h, read-out: ED50 (the source's name)
[7] = test system: A549; assay: Cytotoxicity against human A549 cells after 7 days by MTT assay; type: functional; settings: for EC50: Homo sapiens, A549, 168 h, read-out: ED50 (the source's name)

In the case of `CCCCCCCCCC[C@@H](O)[C@H]1CC[C@@H]([C@H]2CC[C@H]([C@H](O)CCCC[C@H](O)CCCCC[C@@H](O)CC3=C[C@H](C)OC3=O)O2)O1`, the EC50 [1] was 0.378 µg/mL (≈ 0.592 µM), the EC50 [2] was 0.196 µg/mL (≈ 0.307 µM) and the EC50 [3] was 0.01 µg/mL (≈ 0.0157 µM). The LC50 [4] was 2.6 ×10⁻¹ ppm, the EC50 [5] was 1.39 µg/mL (≈ 2.18 µM) and the ED50 [6] was 1.88 ×10⁻⁸ ug/ml. It also gave an ED50 [7] of 1 ×10⁻⁸ ug/ml.

Work on `CCCCCCCCCC[C@@H](O)[C@H]1CC[C@H]([C@H]2CC[C@H]([C@H](O)CCCCCCCCCC[C@@H](O)CC3=C[C@H](C)OC3=O)O2)O1` [ASIMICIN] yielded an LC50 [4] of 2.7 ×10⁻² ppm.

`COc1cccc2c1C(=O)c1c(O)c3c(c(O)c1C2=O)C[C@@](O)(C(=O)CO)C[C@@H]3O[C@H]1C[C@H](N)[C@H](O)[C@H](C)O1` [DOXORUBICIN] gave an EC50 [1] of 0.0189 µg/mL (≈ 0.0348 µM), an EC50 [2] of 0.00243 µg/mL (≈ 0.00447 µM) and an EC50 [3] of 0.00178 µg/mL (≈ 0.00327 µM). For the same molecule, the LC50 [4] was 8 ×10⁻² ppm, the EC50 [5] was 0.00428 µg/mL (≈ 0.00787 µM) and the EC50 [6] was 0.17 µg/mL (≈ 0.313 µM). The EC50 [7] was 0.00178 µg/mL (≈ 0.00327 µM).

`CCCCCCCCCCC(O)C1CCC(C2CCC(C(O)CCCCCCCC[C@H](O)CC3=C[C@@H](C)OC3=O)O2)O1` (stereo partly drawn) [ASIMICIN] gave an ED50 [5] of under 1 ×10⁻¹² ug/ml, an EC50 [6] of 0.852 µg/mL (≈ 1.43 µM) and an ED50 [7] of 8.43 ×10⁻⁴ ug/ml.

For `CCCCCCCCCC[C@@H](O)[C@H]1CC[C@H]([C@H]2CC[C@H]([C@H](O)CCCC[C@H](O)CCCCC[C@@H](O)CC3=C[C@H](C)OC3=O)O2)O1`, the EC50 [1] was 0.527 µg/mL (≈ 0.825 µM), the EC50 [2] was over 1 µg/mL and the EC50 [3] was over 1 µg/mL. The LC50 [4] was 4.3 ×10⁻¹ ppm, the EC50 [5] was 0.00758 µg/mL (≈ 0.0119 µM) and the EC50 [6] was 0.327 µg/mL (≈ 0.512 µM). It also gave an EC50 [7] of 0.673 µg/mL (≈ 1.05 µM).

In the case of `CCCCCCCCCC[C@H](O)[C@H]1CC[C@H]([C@H]2CC[C@H]([C@H](O)CCCCCCCCCCCCC3=C[C@H](C)OC3=O)O2)O1` [BULLANIN], the LC50 [4] was 6 ×10⁻³ ppm, the ED50 [5] was 4.77 ×10⁻¹⁴ ug/ml and the ED50 [6] was 3.22 ×10⁻¹⁴ ug/ml. For the same molecule, the ED50 [7] was 3.11 ×10⁻¹⁴ ug/ml.

With `CC[C@H](O)[C@H](O)CCCCCC[C@H](O)[C@H]1CC[C@H]([C@H]2CC[C@H]([C@H](O)CCCCCCCCCCCCC3=C[C@H](C)OC3=O)O2)O1` [BULLATETROCIN] the EC50 [1] was over 1 µg/mL, the EC50 [2] was over 1 µg/mL and the EC50 [3] was over 1 µg/mL. For the same molecule, the LC50 [4] was 3.1 ×10⁻¹ ppm, the ED50 [5] was 3.32 ×10⁻⁵ ug/ml and the EC50 [6] was 0.497 µg/mL (≈ 0.778 µM). It also gave an EC50 [7] of 0.352 µg/mL (≈ 0.551 µM).

In the case of `CCCCCCCCCC[C@@H](O)[C@H]1CC[C@H]([C@H]2CC[C@H]([C@H](O)CCCC[C@H](O)CCCCCCCC3=C[C@H](C)OC3=O)O2)O1` [ASIMIN], the LC50 [4] was 4.6 ×10⁻³ ppm, the ED50 [5] was under 1 ×10⁻¹² ug/ml and the ED50 [6] was 9.57 ×10⁻⁹ ug/ml. For the same molecule, the ED50 [7] was 7.99 ×10⁻⁹ ug/ml.

Work on `CCCCCCCCCC[C@@H](O)[C@H]1CC[C@@H]([C@H]2CC[C@H]([C@H](O)CCCCCCCCCC[C@@H](O)CC3=C[C@H](C)OC3=O)O2)O1` [TRILOBACIN] yielded an LC50 [4] of 8.7 ×10⁻³ ppm, an ED50 [5] of under 1 ×10⁻¹² ug/ml and an EC50 [6] of 0.339 µg/mL (≈ 0.544 µM). The ED50 [7] was 8.02 ×10⁻⁴ ug/ml.

For `CCCCCCCCCC[C@@H](O)[C@H]1CC[C@@H]([C@H]2CC[C@H]([C@H](O)CCC[C@H](O)CCCCCCCC3=C[C@H](C)OC3=O)O2)O1` [TRILOBIN], the LC50 [4] was 9.7 ×10⁻³ ppm, the ED50 [5] was 2.2 ×10⁻⁸ ug/ml and the ED50 [6] was 2.95 ×10⁻¹² ug/ml. It also gave an ED50 [7] of 5.71 ×10⁻¹² ug/ml.
